Structures can show the parent of a compound that is named as a salt. Where two headings read alike, the source gives them in different places.
Experiments:
SARS-CoV-2 FSE (−1 PRF) = experiment: cells; type: cell-based
HEK293T cells = experiment: Cell viability in the high-throughput screen (cell nuclei numbers)
Method: HEK293T cells were plated in 384 well plates at the density of 5,000 cells/well. Cells were treated by 10 μM candidate compounds 30 min before transfection of 15 ng mCherry-FSE-GFP(−1) plasmid DNA in each well. 24 hours after transfection, cell nuclei were stained with Hoechst dye. Cell nuclei, mCherry, and GFP signals were imaged using an automated fluorescent microscope with a 10x objective, and the acquired images were quantified using the CellProfiler image analysis package. Cell nuclei numbers were quantified as the metric for cell viability. Mean GFP and RFP intensity values were measured in all transfected cells, and GFP/mCherry mean intensity ratios were quantified as the metric for PRF efficiency. The mCherry-GFP fusion plasmid and the mCherry-FSE-GFP(0) plasmid were used as positive and negative controls for elevated and reduced GFP/mCherry ratios, respectively.

[1] = Severe acute respiratory syndrome coronavirus 2, HEK-293T, 24 h, read-out: PERCENT EFFECT 2 (Decreased GFP/Red ratio)
[2] = Severe acute respiratory syndrome coronavirus 2, HEK-293T, 24 h, read-out: PERCENT EFFECT (Increased GFP/Red Ratio)
[3] = 10 μM compound, cell nuclei numbers
[4] = Severe acute respiratory syndrome coronavirus 2, HEK-293T, 24 h; read-out: PERCENT EFFECT 2 (Decreased GFP/Red ratio)
[5] = Severe acute respiratory syndrome coronavirus 2, HEK-293T, 24 h; read-out: PERCENT EFFECT (Increased GFP/Red Ratio)

Structure (SMILES) | PERCENT VIABILITY (HEK293T cells; [3]) [%] | inhibition at 10 µM (SARS-CoV-2 FSE (−1 PRF); [4]) [%] | activation at 10 µM (SARS-CoV-2 FSE (−1 PRF); [5]) [%] | also measured
Nc1c2ccccc2nc2ccccc12 [AMINACRINE] | 24.0 | – | – | inhibition at 10 µM (SARS-CoV-2 FSE (−1 PRF); [1]): -39.3%; activation at 10 µM (SARS-CoV-2 FSE (−1 PRF); [2]): 20.3%
CCOC(=O)OC(C)OC1=C(C(=O)Nc2ccccn2)N(C)S(=O)(=O)c2ccccc21 (centres unmarked) [AMPIROXICAM] | 284.3 | -57.1 | 30.8 | –
CCN(CC)CCNC(=O)c1cc(Br)c(N)cc1OC [BROMOPRIDE] | 113.8 | 65.7 | -35.5 | –
COc1cccc2c1C(=O)c1c(O)c3c(c(O)c1C2=O)C[C@@](O)(C(C)=O)C[C@@H]3O[C@H]1C[C@H](N)[C@H](O)[C@H](C)O1 [DAUNORUBICIN] | 15.3 | 108 | – | PERCENT VIABILITY (HEK293T cells; 10 μM compound, cell nuclei numbers, listed as daunorubicin): 16.18%
C[C@H]1O[C@@H](n2cc(F)c(=O)[nH]c2=O)[C@H](O)[C@@H]1O [DOXIFLURIDINE] | 382.9 | -31.7 | 17.1 | –
COc1cccc2c1C(=O)c1c(O)c3c(c(O)c1C2=O)C[C@@](O)(C(=O)CO)C[C@@H]3O[C@H]1C[C@H](N)[C@H](O)[C@H](C)O1 [DOXORUBICIN] | 13.3 | 101 | -54.1 | –
COc1cccc2c1C(=O)c1c(O)c3c(c(O)c1C2=O)C[C@@](O)(C(=O)CO)C[C@@H]3O[C@H]1C[C@H](N)[C@H](O)[C@H](C)O1.Cl [Doxorubicin Â•HCl] | 6.15 | – | – | PERCENT EFFECT 2 (Decreased GFP/Red ratio) (SARS-CoV-2 FSE (−1 PRF)): 109.41%; PERCENT EFFECT (Increased GFP/Red Ratio) (SARS-CoV-2 FSE (−1 PRF)): −57.80%
COc1cccc2c1C(=O)c1c(O)c3c(c(O)c1C2=O)C[C@@](O)(C(=O)CO)C[C@@H]3O[C@H]1C[C@H](N)[C@@H](O)[C@H](C)O1 [EPIRUBICIN HYDROCHLORIDE] | 46.3 | 105 | -56.4 | –
O=C1OC2(c3ccccc31)c1cc(I)c(O)c(I)c1Oc1c2cc(I)c(O)c1I [ERYTHROSINE SODIUM] | 100.7 | 105 | -56.3 | –
CCCCC(=O)O[C@H]1CC[C@H]2[C@@H]3CCc4cc(O)ccc4[C@H]3CC[C@]12C [ESTRADIOL VALERATE] | 204.4 | 20.9 | -10.8 | –
Cc1cc(-c2ccc(/N=N/c3ccc4c(S(=O)(=O)O)cc(S(=O)(=O)O)c(N)c4c3O)c(C)c2)ccc1/N=N/c1ccc2c(S(=O)(=O)O)cc(S(=O)(=O)O)c(N)c2c1O [EVANS BLUE] | 159.7 | 31.2 | -13.6 | –
CN(C)c1ccc(C(=C2C=CC(=[N+](C)C)C=C2)c2ccc(N(C)C)cc2)cc1 [GENTIAN VIOLET] | 12.5 | 66.6 | -34.5 | –
CC[n+]1c(-c2ccccc2)c2cc(N)ccc2c2ccc(N)cc21 [HOMIDIUM BROMIDE] | 310.9 | 107 | -58 | –
CCN(CCO)CCCC(C)Nc1ccnc2cc(Cl)ccc12 (centres unmarked) [HYDROXYCHLOROQUINE SULFATE] | 346.2 | -34.5 | 18.9 | –
O=C([O-])c1ccccc1-c1c2cc(Br)c(=O)cc-2oc2[c]([Hg+])c([O-])c(Br)cc12.[Na+].[Na+].[OH-] [MERBROMIN] | 167.4 | – | – | PERCENT EFFECT 2 (Decreased GFP/Red ratio) (SARS-CoV-2 FSE (−1 PRF)): 53.1%; PERCENT EFFECT (Increased GFP/Red Ratio) (SARS-CoV-2 FSE (−1 PRF)): −23.1%
C[C@@H]1O[C@@H](O[C@H]2C[C@@H](O)[C@]3(CO)[C@H]4[C@H](O)C[C@]5(C)[C@@H](C6=CC(=O)OC6)CC[C@]5(O)[C@@H]4CC[C@]3(O)C2)[C@H](O)[C@H](O)[C@H]1O [Ouabain] | 16.4 | -29.7 | 15.7 | –
C[C@@H]1O[C@@H](O[C@@H]2C=C3CC[C@@H]4[C@H](CC[C@]5(C)[C@@H](c6ccc(=O)oc6)CC[C@]45O)[C@@]3(C)CC2)[C@H](O)[C@H](O)[C@H]1O [PROSCILLARIDIN] | 3.4 | -37.8 | 16.5 | –
Cc1cc(/C=C/c2ccc3cc(N(C)C)ccc3[n+]2C)c(C)n1-c1ccccc1 [PYRVINIUM PAMOATE] | 15.1 | – | – | –
NCCNc1ccc(NCCN)c2c1C(=O)c1ccncc1C2=O [Pixantrone dimaleate, 6,9-bis[(2-aminoethyl)amino]-5H,10H-benzo[g]isoquinoline-5,10-dione] | 120.8 | -29.9 | 15.8 | –
CCN(CC)CCCC(C)Nc1c2ccc(Cl)cc2nc2ccc(OC)cc12 (centres unmarked) [QUINACRINE HYDROCHLORIDE] | 147.8 | -40.8 | 21.1 | –
Nc1c2c(nc3ccccc13)CCCC2 [TACRINE HYDROCHLORIDE] | – | – | – | inhibition at 10 µM (SARS-CoV-2 FSE (−1 PRF); [1]): 97.1%; activation at 10 µM (SARS-CoV-2 FSE (−1 PRF); [2]): -50.2%; PERCENT VIABILITY (HEK293T cells; human): 148.9%
CC[C@]1(O)C[C@@H]2CN(CCc3c([nH]c4ccccc34)[C@@](C(=O)OC)(c3cc4c(cc3OC)N(C)[C@H]3[C@@](O)(C(N)=O)[C@H](O)[C@]5(CC)C=CCN6CC[C@]43[C@@H]65)C2)C1 [Vindesine Sulfate] | 26.1 | – | 16.8 | PERCENT VIABILITY (HEK293T cells; 10 μM compound, cell nuclei numbers, listed as Vindesine sulfate): 21.3%
CCC1=C[C@@H]2CN(C1)Cc1c([nH]c3ccccc13)[C@@](C(=O)OC)(c1cc3c(cc1OC)N(C)[C@H]1[C@@](O)(C(=O)OC)[C@H](OC(C)=O)[C@]4(CC)C=CCN5CC[C@]31[C@@H]54)C2 [Vinorelbine] | 27.8 | -29.2 | 15.2 | –
Cc1cccc(C)c1N=C1NCCCS1 [XYLAZINE] | 196.8 | -52.5 | 28.9 | –
CC[C@@]1(O)C[C@H](OC2CC(N(C)C)C(OC3CC(O)C(OC4CCC(=O)C(C)O4)C(C)O3)C(C)O2)c2c(cc3c(c2O)C(=O)c2c(O)cccc2C3=O)[C@H]1C(=O)OC (stereo partly drawn) [aclarubicin, methyl (1R,2R,4S)-4-[4-dimethylamino-5-[4-hydroxy-6-methyl-5-(6-methyl-5-oxooxan-2-yl)oxyoxan-2-yl]oxy-6-methyloxan-2-yl]oxy-2-ethyl-2,5,7-trihydroxy-6,11-dioxo-3,4-dihydro-1H-tetracene-1-carboxylate] | 52.5 | 33.3 | – | PERCENT VIABILITY (HEK293T cells; 10 μM compound, cell nuclei numbers, listed as Aclarubicin): 54.77%
CC(=O)[C@]1(N)Cc2c(O)c3c(c(O)c2[C@@H](O[C@H]2C[C@H](O)[C@H](O)CO2)C1)C(=O)c1ccccc1C3=O.Cl [amrubicin, (7S,9S)-9-acetyl-9-amino-7-[(2S,4S,5R)-4,5-dihydroxyoxan-2-yl]oxy-6,11-dihydroxy-8,10-dihydro-7H-tetracene-5,12-dione hydrochloride] | – | – | – | inhibition at 10 µM (SARS-CoV-2 FSE (−1 PRF); [1]): 50.5%; activation at 10 µM (SARS-CoV-2 FSE (−1 PRF); [2]): -23.7%; PERCENT VIABILITY (HEK293T cells; human): 111.0%
CCCC1(CCC)CCC2(CCN(CCCN(CC)CC)C2)CC1 [atiprimod, 3-(8,8-dipropyl-3-azaspiro[4.5]decan-3-yl)-N,N-diethylpropan-1-amine] | 7.2 | -40.9 | 21.2 | –
O=P(O)(O)OC1[C@H](OP(=O)(O)O)[C@H](O)C(O)[C@H](O)[C@H]1OP(=O)(O)O (stereo partly drawn) [atrinositol, [(2R,3S,5R,6R)-3,4,5-trihydroxy-2,6-diphosphonooxycyclohexyl] dihydrogen phosphate] | – | -61.7 | 30.2 | PERCENT VIABILITY (HEK293T cells; human): 199.8%
COc1cccc2c1C(=O)c1c(O)c3c(c(O)c1C2=O)C[C@@](O)(C(C)=NNC(=O)c1ccccc1)C[C@@H]3O[C@H]1C[C@H](N)[C@H](O)[C@H](C)O1.Cl [zorubicin, N-[1-[(2S,4S)-4-[(2R,4S,5S,6S)-4-amino-5-hydroxy-6-methyloxan-2-yl]oxy-2,5,12-trihydroxy-7-methoxy-6,11-dioxo-3,4-dihydro-1H-tetracen-2-yl]ethylideneamino]benzamide hydrochloride] | – | – | – | inhibition at 10 µM (SARS-CoV-2 FSE (−1 PRF); [1]): 106%
